From patent US20200017823A1, “HYDROGEL COMPOSITIONS FOR USE IN NEURAL CELL EXPANSION AND DIFFERENTIATION” (Wisconsin Alumni Research Foundation, priority 2018, published 2020)
Where two headings read alike, the source gives them in different places.

Legend:
iCell Neurons [1] = assay: High-content imaging with skeleton network analysis: neurite branches versus cell viability
Procedure: All data points are mean±SEM. FIG. 14A: Dexamethasone. FIG. 14B: Colchicine.
Commercially available human iPSC-derived neurons (iCell Neurons) and their supporting media were purchased from Cellular Dynamics International (CDI, Madison, Wis.). Previously characterized iCell Neurons represent a mixture of post-mitotic GABAergic and glutamatergic neurons with >95% purity. The cells were received, frozen, thawed, and plated following a protocol recommended by CDI. Briefly, cells were plated on poly-L-lysine pre-coated 384 well plates (Greiner Bio-One) with PEG-NB hydrogels, 3.3 μg/ml laminin, or 60-120 μg/ml […]®.

iCell Neurons [2] = assay: Synthetic hydrogel-based network formation/inhibition assay (total network area); assay type: cell-based, human; details: PLL/Laminin and MATRIGEL screening systems
Excerpt: Total network area was quantified by thresholding neurite processes and cell bodies stained with immunofluorescent tags for βIII-tubulin and MAP2. The resulting data was compared using the Z′ statistic to assess the accuracy of the synthetic hydrogel, PLL/Laminin, and MATRIGEL® screening systems in distinguishing neuronal networks disrupted by the known microtubule inhibitor Colchicine from non-inhibited networks.

SMILES | cell viability (iCell Neurons [1]) | neurite branches / neurite growth (iCell Neurons [1]) | neurite branches / neurite growth (iCell Neurons [1]; synthetic substrate, treated after 120-hour growth, exposed 120 hours, media replenished daily, compared to cell viability) | neuronal network (total network area, βIII-tubulin and MAP2 stain) (iCell Neurons [2])
NC(=O)N1c2ccccc2C=Cc2ccccc21 [Carbamazepine] | reduced viability | apparent inhibition |  | 
COc1cc2c(c(OC)c1OC)-c1ccc(OC)c(=O)cc1[C@@H](NC(C)=O)CC2 [Colchicine] |  |  | significant reductions | disrupted
C[C@@H]1C[C@H]2[C@@H]3CCC4=CC(=O)C=C[C@]4(C)[C@@]3(F)[C@@H](O)C[C@]2(C)[C@@]1(O)C(=O)CO [Dexamethasone] |  | significant reductions |  | 
